Earlier results on two molecules are cited in patent US9351926B2 (Pharmaceutical Solutions Industry Ltd., priority 2012, dated 2016).

The conditions of data set [1]: children, overdose.
For another data set, the system named is platelet aggregation. Particulars: single dose 400 mg within 8 hours before or within 30 minutes after immediate release aspirin (81 mg).
For data set [2] the following is noted: low dose (e.g. 1200 mg daily); epidemiological studies.

Turning to `CC(C)Cc1ccc([C@@H](C)C(=O)O)cc1` [HR-form], the “interconversion into the active [+]S species” value (in adults) is listed as ~60%.
On to `CC(C)Cc1ccc(C(C)C(=O)O)cc1` (racemic) [Ibuprofen, (RS)-2-(4-(2-methylpropyl)phenyl) propanoic acid], for which the “ingested dose that may cause symptoms” value in data set [1] was “more than 400 mg/kg”. Under “in vivo”, the Bioavailability is 49-73% and the Excretion result is on record as “Renal”. Besides, the “concentration in breast milk” value (limited studies) is “very low concentrations”. The “time of peak serum concentrations after ingestion” value (oral, empty stomach) is 45 min. In addition, the “time of peak levels after administration” value (oral, taken with food) was 1 to 2 h. The “effect on the action of aspirin on thromboxane formation or platelet aggregation” value in the data set with platelet aggregation is “decreased effect of aspirin on the formation of thromboxane or platelet aggregation”. The “risk of myocardial infarction” value in data set [2] is recorded as “do not suggest that low dose ibuprofen (e.g. 1200 mg daily) is associated with an increased risk of myocardial infarction”.
